Experimental data: PubChem BioAssay (NCI)
Values joined by “and” are separate entries in the source; they are usually repeats but may differ in a detail not shown here. Equal entries are not always repeated.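 Five concentrations, 48 hours, 96-well plates. Here, GI50 denotes the concentration required for 50% inhibition of growth. The concentration for full growth arrest is given as TGI.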

Assays:
Assay in all cases: NCI-60 cell line screen, 48 h
M19-MEL melanoma = test system: M19-MEL melanoma
LXFL 529 NSCLC = test system: LXFL 529 NSCLC
SNB-78 CNS = test system: SNB-78 CNS
DMS 273 small cell lung = test system: DMS 273 small cell lung
RXF-631 renal = test system: RXF-631 renal
KM20L2 colon = test system: KM20L2 colon
XF 498 CNS = test system: XF 498 CNS
MDA-MB-435 = test system: MDA-MB-435
MDA-N = test system: MDA-N

| Structure (SMILES) | TGI (M19-MEL melanoma) | TGI (LXFL 529 NSCLC) | TGI (SNB-78 CNS) [µM] | TGI (DMS 273 small cell lung) [µM] | TGI (RXF-631 renal) [µM] | TGI (KM20L2 colon) | GI50 (M19-MEL melanoma) | GI50 (SNB-78 CNS) | GI50 (DMS 273 small cell lung) [µM] | TGI (XF 498 CNS) [µM] | TGI (MDA-MB-435) [µM] | TGI (MDA-N) [µM] | GI50 (MDA-MB-435) [µM] |
| --- | --- | --- | --- | --- | --- | --- | --- | --- | --- | --- | --- | --- | --- |
| O=[N+]([O-])c1cccc(C2=NOC3CCCC23)c1 (stereo not drawn) | > 100 µM | > 100 µM | > 100 | > 100 | – | – | – | – | – | – | – | – | – |
| CCOC(=O)c1c(/C=N\Nc2ccccc2)nc2ccccc2c1-c1ccccc1 | 60.7 µM | > 100 µM | > 100 | > 100 | > 100 | > 100 µM | – | – | – | – | – | – | – |
| Cc1c2cc[n+](C)cc2c(C)c2c1[nH]c1ccc(Oc3ccccc3)cc12 | 24.5 µM and > 100 µM | 6.13 µM and 6.82 µM | 3.47 | > 100 | – | 23 µM and > 52.3 µM | 2.56 µM and 3.23 µM | 0.809 µM and 0.266 µM | 1.15 | – | – | – | – |
| COC(=O)c1ccccc1NCc1cc(O)ccc1O | 31.7 µM | 32.9 µM | 66.6 | > 100 | – | > 100 µM | – | – | – | 33.1 | 34.2 | 31.8 | – |
| Cc1c(N)nc(C2CC(=O)N2CC(N)C(N)=O)nc1C(=O)NC(C(=O)NC(C)C(O)C(C)C(=O)NC(C(=O)NCCc1nc(-c2nc(C(=O)NCCNCC(C)O)cs2)cs1)C(C)O)C(OC1OC(CO)C(O)C(O)C1OC1OC(CO)C(O)C(OC(N)=O)C1O)c1cnc[nH]1 (stereo not drawn) | > 57.6 µM | > 100 µM | > 100 | 12 | – | > 100 µM | – | – | – | > 22.4 | 36.4 | > 50 | – |
| COC(=O)/C(=C/c1ccc(OC)cc1)c1cc(OC)c(OC)c(OC)c1 | > 100 µM | > 100 µM | > 100 | > 100 | – | – | – | – | – | 83.7 | 0.477 | 0.43 | – |
| NC(=O)NC(=O)C1CCC(=O)N1S(=O)(=O)c1ccc(Cl)cc1 (stereo not drawn) | > 100 µM | > 100 µM | – | – | > 100 | > 100 µM | – | – | – | > 100 | – | – | – |
| CCCNc1ncnc2c1cnn2C | > 100 µM | – | > 100 | > 100 | – | > 100 µM | – | – | – | > 100 | – | – | – |
| CCOC(=O)NC/C=C/CO | > 100 µM | > 100 µM | > 100 | > 100 | > 100 | > 100 µM | – | – | – | – | – | – | – |
| CCOC(=O)/C(=C/c1ccc[nH]1)P(=O)(OCC)OCC | > 100 µM | > 100 µM | > 100 | > 100 | > 100 | > 100 µM | – | – | – | > 100 | – | – | – |
| CC(C)c1nc(Cl)c(Cl)c(Cl)n1 | – | – | – | – | – | – | – | – | – | – | 17.2 | 19 | – |
| CN(C)c1ccc(/C=C2\Cc3ccccc3C2=O)cc1Br | > 100 µM | > 100 µM | > 100 | – | – | > 100 µM | – | – | – | 86.2 | – | – | – |
| Cn1ncc2c(c1=O)Nc1ccccc1S2(=O)=O | > 100 µM | > 100 µM | > 100 | > 100 | – | > 100 µM | – | – | – | – | – | – | – |
| Cc1nc(-c2cccnc2)sc1C(=O)/C=C/c1ccc(Cl)cc1Cl | > 100 µM | – | > 100 | > 100 | – | > 100 µM | – | – | – | – | – | – | – |
| NC1CC(n2ccc(=O)[nH]c2=O)OC1C(O)CO (stereo not drawn) | > 100 µM | > 100 µM | – | > 100 | > 100 | > 100 µM | – | – | – | > 100 | – | – | – |
| Oc1ccc(/C=N/Nc2nnc(N/N=C/c3ccc(O)cc3O)c3ccccc23)c(O)c1 | – | – | – | – | – | – | – | – | – | – | 3.67 | 0.93 | 0.587 |
| CC(=O)Nc1ccc(C(=O)NN2C(=O)CSC2c2ccccc2)cc1 (stereo not drawn) | – | – | – | – | – | – | – | – | – | – | > 100 | > 100 | – |
| COC(=O)CCSC(=O)Nc1ccccc1Cl | – | > 100 µM | > 100 | > 100 | – | > 100 µM | – | – | – | – | – | – | – |
| CC(C)C12CCC3(CCC4C(C)(C(=O)O)CCCC4(C)C3C1)C(CN)C2 (stereo not drawn) | – | – | – | – | – | – | – | – | – | – | > 100 | 84 | – |
| CCCCCCCCCCCCCCCC(=O)NCC(OCC)OCC | > 100 µM | > 100 µM | > 100 | > 100 | > 100 | > 100 µM | – | – | – | > 100 | – | – | – |
| Cc1cc2c(SCc3ccccc3Cl)nc(N)nc2nc1C | – | – | – | – | – | – | – | – | – | – | > 100 | > 100 | – |
| Cc1ccc(S(=O)(=O)NCc2cccc([N+](=O)[O-])c2)cc1 | – | – | – | – | – | – | – | – | – | – | > 100 | > 100 | – |
